From the OPERA property sets (Mansouri et al. 2018)

Conditions: not given

SMILES	boiling point [°C]	log10 Koc (L/kg)	log10 vapour pressure (mmHg)	melting point [°C]	ready biodegradability	log10 Henry constant (atm·m³/mol)	log10 Koa
c1ccc(NNc2ccccc2)cc1	309	2.98	-3.36	131			
CCCCCC(=O)OCCC	187			-68.7			
CCCCCCCCCCCCCCCCCCOCC(O)CO (centres undefined)				70.5			
CCCCC(CC)CCC(=O)CC(C)C (centres undefined)	252						
CC(C)(C#N)/N=N/C(C)(C)C#N				102			
N#Cc1ccccc1C(F)(F)F	205			18			
O=C1OC(c2ccc(O)c3ccccc23)(c2ccc(O)c3ccccc23)c2ccccc21				254			
CNCCN(C)C	117						
Cc1c(-c2ccccc2)[nH]c2ccccc12				91.5			
CCN1CCN(C(=O)N[C@@H](C(=O)N[C@@H]2C(=O)N3C(C(=O)O)=C(CSc4nnnn4C)CS[C@H]23)c2ccc(O)cc2)C(=O)C1=O				169			
C=CCOC(=O)OCCOCCOC(=O)OCC=C				-4	readily biodegradable		
CCCCN(CCCC)N=O			-1.33				
O=CC(Br)(Br)Br	174		0.183	-57.5			
NC(=O)Nc1cccc(Cl)c1		2.01					
COc1cc(/C=C/C(=O)CC(=O)/C=C/c2ccc(O)c(OC)c2)ccc1O				183			
CCN1CCCC1CNC(=O)c1cc(S(=O)(=O)CC)ccc1OC (centres undefined)				182			
C=CC(C)C(C)O (centres undefined)	126						
CC(=CC(=O)c1ccccc1)c1ccccc1	342						
N#Cc1cc(I)c(O)c([N+](=O)[O-])c1				138			
CCCCCCCCCC(=O)OCC	242			-20			

SMILES	boiling point [°C]	log10 Koc (L/kg)	log10 vapour pressure (mmHg)	melting point [°C]	ready biodegradability	log10 Henry constant (atm·m³/mol)	log10 Koa
COc1ccc(C=O)c2ccccc12				34.8			
C=C(NC(C)=O)C(=O)CCC(N)=O				130			
FCCCl	53.1			-50			
Fc1cccc(Br)c1	150						
CC(O)CO (centres undefined)	188	0.36	-0.889	-60	readily biodegradable		
NCCc1ccc(O)c(O)c1				128			
CCC(C)(O)C(C)C (centres undefined)	140						
COc1ccc2c3c1O[C@H]1[C@@H](O)C=C[C@H]4[C@@H](C2)N(C)CC[C@@]341				158			
CCSC(=O)SCC	197						
Cc1cccc(CCl)c1	196						
Clc1ccccc1C=C1c2ccccc2-c2ccccc21				69.5			
CC(C)(Oc1ccccc1)C(=O)O				98.5			
CC(=O)OCC(COC(C)=O)OC(C)=O	259		-2.61		readily biodegradable		
Cl.Cl.O=C1c2c(O)ccc(O)c2C(=O)c2c(NCCNCCO)ccc(NCCNCCO)c21				204			
CCOP(=S)(Oc1cnc(C(C)(C)C)nc1)OC(C)C (centres undefined)			-4.43				
CC(=O)N(C(C)=O)c1ccccc1				37.5			
CC1=C(CCO)SC2=Nc3nc(C)ncc3CN21				229			
O=CCCCC=O			-0.222				
CC[C@H]1OC(=O)[C@H](C)[C@@H](O[C@H]2C[C@@](C)(OC)[C@@H](O)[C@H](C)O2)[C@H](C)[C@@H](O[C@@H]2O[C@H](C)C[C@H](N(C)C)[C@H]2O)[C@](C)(O)C[C@@H](C)C(=O)[C@H](C)[C@@H](O)[C@]1(C)O				191			
O=[n+]1[n-]c(-n2ccnc2)nc2ccc(Cl)cc21			-8.65	182			

SMILES	boiling point [°C]	log10 Koc (L/kg)	log10 vapour pressure (mmHg)	melting point [°C]	ready biodegradability	log10 Henry constant (atm·m³/mol)	log10 Koa
Nc1ccc(S(=O)(=O)c2ccc([N+](=O)[O-])cc2)cc1				170			
Clc1nc2ccccc2s1	248			24			
O=C(O)c1nn(Cc2ccc(Cl)cc2Cl)c2ccccc12				207			
Brc1cc(Br)cc(Br)c1	271		-2.82	123			
O=C(O)c1ccccc1Br				150			
CCC1CCc2ccccc2C1 (centres undefined)	235			-42.8			
c1cc2c3c(ccc4c3c1CCC4)CCC2				133			
CC(=O)c1c(C)cc(C)cc1C	241						
CC#CCCCCCCCC	204			-30.1			
CCC(C)OC (centres undefined)	65		2.32	-100			
O=CC=O	50.4		2.41	15	readily biodegradable	-8.48	
CCN(C(=O)SCc1ccccc1)C(C)C(C)C (centres undefined)			-5.12				
Clc1ccc(-c2ccccc2Cl)cc1Cl			-3.99			-3.8	
CCCCC(C)Cl (centres undefined)	122		1.13				
Clc1cc2cc(Cl)c(Cl)cc2cc1Cl							8.45
CCCCCCc1cccc2ccccc12	322			-18			
CC(=O)Oc1ccc(C)cc1	212						
Clc1cc2c(Cl)c(Cl)c(Cl)cc2c(Cl)c1Cl			-6.46				9.58
O=[N+]([O-])c1ccccc1/C=C/c1ccccc1				73			
C=CC#CCC	85						

Same assay, conditions: fish

SMILES	log10 BCF	log10 biotransformation half-life (days)
Cc1ccc(C)c(C(C)c2ccccc2)c1 (centres undefined)	2.86	0.1
C=C(C)CCCCCCCCCC		0.64
Clc1cc(Cl)c(Cl)c(-c2c(Cl)c(Cl)c(Cl)c(Cl)c2Cl)c1Cl		2.63
Brc1cc(Br)cc(Br)c1	3.7	1.65
c1cc2c3c(ccc4c3c1CCC4)CCC2		0.42
